Test results taken from article PMC5916032 (Journal of molecular biology, 2018).

Target: fascin 1 (Homo sapiens, UniProt Q16658)
Experiment: X-ray co-crystal structure
Format: biochemical

IC50: ~180 nM
SMILES: Cc1cnoc1C(=O)Nc1nn(Cc2ccc(C(F)(F)F)cc2)c2ccccc12 [NP-G2-029, 4-methyl-N-(1-(4-(trifluoromethyl)benzyl)-1H-indazol-3-yl)isoxazole-5-carboxamide]
